In US11654196B2, “Dosing regimens for echinocandin class compounds” (priority 2012, dated 2023):

Legend:
[1] = Pharmacokinetics in chimpanzee, IV dose; details: in vivo
Method: Pharmacokinetic studies were performed in six adult female chimpanzees. Two chimpanzees received 1-mg/kg IV dose of compound 22 formulated in 5% dextrose (60-minute infusion). Two chimpanzees received 10-mg/kg oral dose of compound 22 formulated in 5% citric acid (oral bolus). Two chimpanzees received 1-mg/kg IV dose of anidulafungin formulated as package label (5% dextrose, 60-minute infusion). Plasma samples were collected from all chimps for 10 days to 22 days. PK curves are depicted in FIGS. 16A, 16B, and 18. All pharmacokinetic calculations were performed using WinNonlin version 4.1 (Pharsight Corp) by noncompartmental analysis.

[2] = Circulating half-life in monkey; assay type: in vivo; details: assays conducted by applicant
[3] = Stability in human plasma; assay type: in vitro ADME; details: human, plasma
Method: (§1) Stock solutions of compound 22 and anidulafungin were prepared in DMSO at a concentration of 1 mg/mL. Plasma samples were prepared by mixing plasma with 10% volume of 1 M sodium phosphate, pH 7.4, to minimize pH fluctuation, and stock solution to produce plasma samples containing approximately 10,000 ng/mL compound 22 or anidulafungin. For the stability experiments in PBS buffer, plasma was replaced with phosphate buffered saline, pH 7.4. The DMSO concentration was 1% in the final incubation. Multiple individual aliquots (0.5 mL each) were prepared, capped, and incubated at 37° C. At each stability time point, the reaction was stopped by removing the sample from the incubator and adding 0.5 mL of acetonitrile containing internal standard. Samples were centrifuged for approximately 5 minutes at 10000 rpm to precipitate the proteins. Stability was measured in five different matrices (i.e. rat plasma, dog plasma, monkey plasma, human plasma, and PBS). An aliquot (100 μL) of supernatant of each sample was assayed by HPLC. The percentage of anidulafungin and compound 22 remaining at each time point was calculated by dividing the peak area ratio at each time point by the peak area ratio at time zero.

[4] = Circulating half-life in chimpanzee; assay type: in vivo; details: assays conducted by applicant
Stability in rat plasma = assay type: in vitro ADME; details: rat, plasma
Method: as §1

[5] = Circulating half-life in dog; assay type: in vivo; details: assays conducted by applicant
[6] = Solubility in aqueous media of varying pH; assay type: physicochemical; details: for solubility: ambient temperature, compound 22 as acetate salt, salt free equivalent
[7] = Pharmacokinetics following intravenous administration in beagle dogs; assay type: in vivo; details: 1.4 mg/kg IV slow bolus
Method: Echinocandin class compounds were administered to beagle dogs weighing approximately 6-10 kg. Each compound was dosed at 1.4 mg/kg in aqueous saline (with or without 0.5% Tween) over course of 1-10 minutes. […] The dogs were fasted at least 12 hours prior to each dosing and offered food after the 4-hour blood sample was taken; water was withheld for 1 hour prior to and 4 hours following each dosing event. The dose for each animal was based on its most recent body weight. The test article was injected intravenously via a catheter placed in the cephalic vein as a slow bolus.
Blood was collected via the jugular vein. All blood samples (1 mL each) were collected into K3EDTA tubes. Following blood collection, the samples were immediately inverted several times and were held on wet ice pending centrifugation. The samples were centrifuged within 30 minutes of collection under refrigeration (˜5° C. for 10 minutes at 2000 g) to obtain plasma. The plasma was frozen immediately on dry ice after separation. The plasma samples were stored at approximately ˜70° C. until analysis.
Plasma (100 μL) was precipitated with 400 μL of 0.1% formic acid in acetonitrile containing the internal standard (100 ng/mL pneumocandin). The samples were then capped and vortexed for about 30 seconds followed by centrifugation at 14,000 rpm at room temperature for 10 minutes. Following centrifugation 200 μL of supernatant was transferred to plastic autosampler vials containing 200 μL of 0.1% formic acid in water and vortexed. Samples were then analyzed by LCMSMS.
All pharmacokinetic calculations were performed using WinNonlin version 4.1 (Pharsight Corp) by noncompartmental analysis.

[8] = Stability in phosphate buffered saline (PBS); assay type: physicochemical; details: buffer, pH 7.4
Method: as §1

[9] = Circulating half-life in rat; assay type: in vivo; details: assays conducted by applicant
[10] = Pharmacokinetics (oral bioavailability) following oral administration in beagle dogs; assay type: in vivo; set-up: key to Improvement (ratio of % oral bioavailability to saline): NI = no improvement in oral bioavailability in comparison to saline; details: for % BA / Improvement (ratio of % oral bioavailability to saline): oral
Method: Echinocandin class compounds were administered to beagle dogs weighing approximately 6-10 kg. Each animal received the appropriate prepared test article in a single oral capsule dose at a target dose level of about 7-10 mg/kg. Immediately after dosing, each animal was offered 20 mL-30 mL of water orally (Groups 1-4) or 30 mL of water orally to assist in swallowing the capsule.
Animals were treated and blood samples were drawn and analyzed as provided in Example 1.
The bioavailability of each oral dose formulation was estimated by comparison to intravenous plasma concentration data in dogs from Example 1. The results provided in Table 3 show the oral bioavailability for the echinocandin class compound in saline (formulation 11), and the improvement over saline with the use of a formulation of the invention.

CC(=O)[O-].CCCCCOc1ccc(-c2ccc(-c3ccc(C(=O)NC4CC(O)C(OCC[N+](C)(C)C)NC(=O)C5C(O)C(C)CN5C(=O)C(C(C)O)NC(=O)C(C(O)C(O)c5ccc(O)cc5)NC(=O)C5CC(O)CN5C(=O)C(C(C)O)NC4=O)cc3)cc2)cc1 (centres unmarked) [Compound 22]
Clearance used to calculate human circulating concentrations ([1]; human): 3.4 mL/h/kg
Plasma half life used to calculate human circulating concentrations ([1]; human): 80 h
Clearance compared with anidulafungin [1]: lower clearance
Half-life compared with anidulafungin [1]: longer half-life
Plasma half-life (IV) ([1]; iv): 81 h
clearance ([1]; iv): 3.4 mL/h/kg
Half-life [2]: 40 h
% remaining ([3]; 0 h): 100%
% remaining ([3]; 1 h): 98.5%
% remaining ([3]; 2 h): 101%
% remaining ([3]; 4 h): 125%
% remaining ([3]; 8 h): 97.5%
% remaining ([3]; 21 h): 95.7%
% remaining ([3]; 44 h): 93.3%
Half-life [4]: 81 h
% remaining (Stability in rat plasma; 0 h): 100%
% remaining (Stability in rat plasma; 1 h): 103%
% remaining (Stability in rat plasma; 2 h): 106%
% remaining (Stability in rat plasma; 4 h): 138%
% remaining (Stability in rat plasma; 8 h): 99.3%
% remaining (Stability in rat plasma; 21 h): 96.5%
% remaining (Stability in rat plasma; 44 h): 91.2%
Half-life [5]: 53 h
solubility ([6]; 90% Water:10% glycerol): >102.3 mg/mL
solubility ([6]; Acetate buffer (0.01M, pH 4.5)): >145 mg/mL
solubility ([6]; Acetate buffer (0.01M, pH 5.5)): >141 mg/mL
solubility ([6]; Sterile Water for injection): >142 mg/mL
solubility ([6]; Tris buffer (0.01M, pH 8.5)): >138 mg/mL
Aqueous solubility compared with anidulafungin ([6]; variety of aqueous mediums): dramatically greater aqueous solubility than anidulafungin
AUC [7]: 48700 ng·h/mL
Cmax [7]: 1570 ng/mL
Mean clearance [7]: 18.1 mL/h/kg
T1/2 [7]: 53.1 h
Volume of Distribution [7]: 1.36 L/kg
% remaining ([8]; 0 h): 100%
% remaining ([8]; 1 h): 105%
% remaining ([8]; 2 h): 103%
% remaining ([8]; 4 h): 107%
% remaining ([8]; 8 h): 101%
% remaining ([8]; 21 h): 96.3%
% remaining ([8]; 44 h): 96.1%
Half-life [9]: 30 h
% BA in saline ([10]; oral about 7-10 mg/kg, formulation 11 (saline)): 3.50%
% BA ([10]; formulation 1): (8.21%)
Improvement (ratio of % oral bioavailability to saline) ([10]; formulation 1): 2.3
% BA ([10]; formulation 3): (9.76%)
Improvement (ratio of % oral bioavailability to saline) ([10]; formulation 3): 2.8
% BA ([10]; formulation 5): (12.3%)
Improvement (ratio of % oral bioavailability to saline) ([10]; formulation 5): 3.5
% BA ([10]; formulation 7): (12.2%)
Improvement (ratio of % oral bioavailability to saline) ([10]; formulation 7): 3.5
Improvement (ratio of % oral bioavailability to saline) ([10]; formulation 8): NI
Improvement (ratio of % oral bioavailability to saline) ([10]; formulation 9): NI
Improvement (ratio of % oral bioavailability to saline) ([10]; formulation 10): NI
Improvement (ratio of % oral bioavailability to saline) ([10]; formulation 12): NI
% BA ([10]; formulation 13): (8.80%)
Improvement (ratio of % oral bioavailability to saline) ([10]; formulation 13): 2.5
% BA ([10]; formulation 14): (15.0%)
Improvement (ratio of % oral bioavailability to saline) ([10]; formulation 14): 4.3
% BA ([10]; formulation 15): (13.4%)
Improvement (ratio of % oral bioavailability to saline) ([10]; formulation 15): 3.8
% BA ([10]; formulation 16): (5.50%)
Improvement (ratio of % oral bioavailability to saline) ([10]; formulation 16): 1.5
% BA ([10]; formulation 17): (11.8%)
Improvement (ratio of % oral bioavailability to saline) ([10]; formulation 17): 3.3
